Measurements as given in patent US20260250317A1, “COMPOUND AND USE OF THE SAME” (JAPAN SCIENCE AND TECHNOLOGY AGENCY, priority 2022, published 2026).
Entries after “also recorded” stand apart in the source; their conditions may differ. Starred links: 1 amine or outer side, 2 acyl side, 3 side chain; linkers in the order of their positions; H or OH if unused. Non-standard residues stand in square brackets, D forms with d. Residues, ends and D or L forms follow the SMILES beside them. X1 = O=C(C(Cc1ccc(/N=N/c2ccccc2)cc1)N[*:1])[*:2]

Legend:
[1] = Rheological evaluation (storage modulus G' and loss modulus G'', rotational rheometer); format: physicochemical; conditions: trans form, 1.0 wt % in D-MEM buffer pH 8.5, incubated 3 days at 37° C. in dark
Protocol: The trans form of the compound (P1) was dispersed in a D-MEM buffer solution (4 mM HEPES, containing 1 wt % NaHCO3, pH 8.5) to produce a dispersion liquid including 1.0 wt % of the compound (P1). This dispersion liquid was incubated for 3 days in a dark place at 37° C. in a 5% CO2 atmosphere. Thereafter, the storage modulus G′ and loss modulus G″ were measured using a rotational rheometer (Malvern Panalytical, Kinexus lab+).
This dispersion liquid was incubated for 3 days in a dark place at 37° C. in a 5% CO2 atmosphere. The storage modulus G′ and loss modulus G″ were then measured using a rotational rheometer (Malvern Panalytical, Kinexus lab+).

[2] = Reversible gel-sol transition by light irradiation (test tube); format: physicochemical
Protocol: The compound (P1) was dispersed in a D-MEM buffer solution (4 mM HEPES, containing 1 wt % NaHCO3, pH 8.5) to produce a dispersion liquid including 1.0 wt % of the compound (P1). The dispersion liquid was placed in a test tube to observe the gel-sol transition caused by light irradiation. Incubation after the start of light irradiation was performed at 37° C. in a 5% CO2 atmosphere.
This dispersion liquid was placed in a test tube to observe the changes in gelation and solation caused by light irradiation. After the start of light irradiation, incubation was performed at 37° C. in a 5% CO2 atmosphere.

[3] = TEM analysis of dispersion liquid; format: physicochemical; conditions: 1.0 wt % dispersion, irradiated with 450 nm light
Protocol: (§1) This dispersion liquid was incubated for 3 days in a dark place at 37° C. in a 5% CO2 atmosphere. Thereafter, the dispersion liquid was irradiated with 450 nm light and analyzed with a transmission electron microscope (JEOL JEM-1400).
as §1, with “nm or 550 nm” for “nm”, “absorption spectrum analysis was performed by infrared absorption spectroscopy analysis (IR) (JASCO FTIR-6100) and analysis was performed using” for “analyzed with”

[4] = Droplet fusion and control by light irradiation
Protocol: A mixed aqueous solution including 5 wt % DEX550k and 5 w % PEG35k was produced in a microtube. Next, the compound (P1) was added to the mixed aqueous solution to be 1 wt % thereof, dissolved, and stirred for 1 minute using a vortex. […] The produced droplets were position-selectively irradiated with 350 nm light for 6 minutes. The droplet dispersion liquid was placed in a transparent cell having a depth of 1 mm and light irradiation was performed using a fluorescence microscope (Olympus IX-73). A U-HGLGPS (brightness: 130 W) was used as the light source for the fluorescence microscope and light was irradiated with a brightness output setting of 25%.
To observe the localization of the compound (P), the compound (P1) was labeled using Cy5. A mixed aqueous solution including 5 wt % dextran (550 kDa; DEX550k) and 5 wt % polyethylene glycol (35 kDa; PEG35k) was produced in a microtube. Next, the Cy5-labeled compound (P1) was added to the mixed aqueous solution to be 1 wt % thereof, dissolved, and stirred for 1 minute using a vortex. […] The droplets were irradiated with 350 nm light for 5 seconds. The droplet dispersion liquid was placed in a transparent cell having a depth of 1 mm and light irradiation was performed using a fluorescence microscope (Olympus IX-73). A U-HGLGPS (brightness: 130 W) was used as the light source for the fluorescence microscope and light was irradiated with a brightness output setting of 25%. Before and after light irradiation, the droplets were observed using a phase-contrast microscope (Olympus IX-73 connected to a phase-contrast light source) and a fluorescence microscope (Olympus IX-73 connected to a fluorescence light source U-HGLGPS).
A mixed aqueous solution including 5 wt % dextran (550 kDa; DEX550k) and 5 wt % polyethylene glycol (35 kDa; PEG35k) was produced in a microtube. Next, the labeled compound (P1) was added to the mixed aqueous solution to be 1 wt % thereof, dissolved, and stirred for 1 minute using a vortex. […] The droplets were subjected to any of the following light irradiation operations (1) to (3). The light irradiation was performed in the same manner as described above. • (1) No light irradiation. • (2) Irradiation with 350 nm light for 5 seconds. • (3) Irradiation with 350 nm light for 5 seconds, followed by irradiation with 550 nm light for 5 seconds.
The droplets were observed under a phase-contrast microscope before and after carrying out the light irradiation operation under the above-described conditions. In (1), an image “before carrying out the light irradiation operation” was taken and then an image “after carrying out the light irradiation operation” was taken within 1 minute. No light irradiation was performed between “before carrying out the light irradiation operation” and “after carrying out the light irradiation operation”. In (2), an image “after carrying out the light irradiation operation” was taken immediately after 5 seconds of irradiation with 350 nm light. In (3), 350 nm light was irradiated for 5 seconds, immediately followed by irradiating 550 nm light for 5 seconds, and an image “after carrying out the light irradiation operation” was taken immediately after the 550 nm light was irradiated for 5 seconds.
A mixed aqueous solution including 5 wt % DEX550k and 5 w % PEG35k was produced in a microtube. Next, the compound (P2) was added to the mixed aqueous solution to be 1 wt % thereof, dissolved, and stirred for 1 minute using a vortex. […] The produced droplets were irradiated with 350 nm light for 5 seconds. The droplet dispersion liquid was placed in a transparent cell having a depth of 1 mm and light irradiation was performed using a fluorescence microscope (Olympus IX-73).

[5] = Evaluation of droplet stability (phase-contrast microscope); conditions: 1 wt % compound, 5 wt % DEX550k, 5 wt % PEG35k
Protocol: A mixed aqueous solution including 5 wt % dextran (550 kDa; DEX550k), 0.002 wt % rhodamine-DEX550k, and 5 wt % polyethylene glycol (35 kDa; PEG35k) was produced in a microtube. Next, the compound (P1) was added to the mixed aqueous solution to be 1 wt % thereof, dissolved, and stirred for 1 minute using a vortex. Due to this, liquid-liquid phase-separated droplets were produced.
Liquid-liquid phase-separated droplets were produced by the same method as in <Droplet Production Example 1>. After production of the droplets, the droplets were left to stand for 24 hours and the state of the droplets was observed using a phase-contrast microscope.
Liquid-liquid phase-separated droplets were produced by the same method as in <Droplet Production Example 1>. After production of the droplets, the droplets were left to stand for 16 days and the state of the droplets was observed using a phase-contrast microscope.

[6] = Photoresponsiveness (UV-vis absorption spectrum after light irradiation); format: physicochemical; conditions: 1 wt % dispersion in D-MEM with 4 mM HEPES, 25° C.; P1: 350 nm / 450 nm; P3: 540 nm / 450 nm
Protocol: The compound (P1) was dispersed in a D-MEM buffer solution including 4 mM HEPES to produce a dispersion liquid including 1 wt % of the compound (P1). This dispersion liquid was placed in a transparent cell having a depth of 1 mm and irradiated with light using a fluorescence microscope (Olympus IX-73). A U-HGLGPS (brightness: 130 W) was used as the light source for the fluorescence microscope and light was irradiated with a brightness output setting of 25%. The absorption spectrum and circular dichroism (CD) spectrum of the dispersion liquid after light irradiation were measured by ultraviolet-visible light spectroscopy. The measurements were performed at room temperature (25° C.).
This dispersion liquid was irradiated with 450 nm or 550 nm light and the absorption spectrum was analyzed by ultraviolet-visible spectroscopy (UV-vis) (JASCO V-650 spectrophotometer). Measurements were performed at room temperature (25° C.).

[7] = 1 wt % compound, 350 nm light for 5 seconds

CSCCC(NC(=O)C(CCCNC(=N)N)NC(=O)C(C)NC(=O)C(CC(=O)O)NC(=O)C(Cc1ccc(/N=N/c2ccccc2)cc1)NC(=O)C(CCCNC(=N)N)NC(C)=O)C(=O)NC(CCCNC(=N)N)C(N)=O (stereo not shown) [Compound (P1)] (Ac-R[X1]DARMR-NH2; configuration not given here)
gel formation (G' versus G'') [1]: a gel was formed
state of dispersion liquid at start of light irradiation, cis form ([2]; 1.0 wt % in D-MEM buffer pH 8.5, 0 min): underwent solation
state of dispersion liquid at start of light irradiation, trans form ([2]; 1.0 wt % in D-MEM buffer pH 8.5, 0 min / before irradiation): underwent gelation
state of trans-form dispersion liquid after 350 nm light ([2]; 1.0 wt %, 350 nm light for 15 minutes, 37° C., 5% CO2): underwent solation
state of cis-form dispersion liquid after 450 nm light ([2]; 1.0 wt %, 450 nm light for 15 minutes, 37° C., 5% CO2): underwent gelation
structure in TEM image, trans form [3]: formed a structure in a fibrous state
change of droplets after 350 nm light [4, 7]: droplets which were larger than before the light irradiation were observed; also recorded: the size of the droplets significantly increased
droplet fusion in light irradiated spot ([4]; 1 wt % compound, position-selective 350 nm light for 6 minutes): a larger droplet was formed
change of droplets after 350 nm then 550 nm light ([4]; 1 wt % labeled compound, 350 nm light 5 seconds, then 550 nm light 5 seconds): the number of droplets decreased and the size of the droplets increased
change of droplets, no light irradiation ([4]; 1 wt % labeled compound, operation (1) no light irradiation): no change was seen in the size of the droplets
state of droplet dispersion liquid before irradiation with 350 nm light ([4]; Cy5-labeled compound, 1 wt %): gel state
state of droplet dispersion liquid after irradiation with 350 nm light ([4]; Cy5-labeled compound, 1 wt %, 350 nm light for 5 seconds): sol state
time for which droplets were stably maintained ([5]; left to stand 24 hours): ≥ 24 h
time after which droplets were still stably maintained ([5]; left to stand 16 days): ≥ 16 days
photoisomerization of azobenzene structure on light irradiation [6]: reversibly isomerized from the trans form to the cis form and from the cis form to the trans form

CSCCC(NC(=O)C(CCCNC(=N)N)NC(C)=O)C(=O)NC(CC(=O)O)C(=O)NC(C)C(=O)NC(CCCNC(=N)N)C(=O)NC(Cc1ccc(/N=N/c2ccccc2)cc1)C(=O)NC(CCCNC(=N)N)C(N)=O (stereo not shown) [Compound (P2)] (Ac-RMDAR[X1]R-NH2; configuration not given here)
change of droplets after 350 nm light [4, 7]: larger droplets were formed
